Source: paper PMC11206245 (Pharmaceuticals, 2024)
Like-named read-outs stand apart in the source and are kept apart here.

Tests used:
[1] = design: method as in PMID 22124669, PMID 20618337; conditions: humans; cited from earlier work
[2] = Study B: 17-AAG pharmacokinetics in subcutaneous interstitial fluid (tissue cages, HPLC); assay type: in vivo; conditions: dogs; for AUC(0-t) / Cmax / half-life: both sexes, dog, subcutaneous interstitial fluid, iv, mean ± SD; for half-life: read-out: t ½ (converted)
Protocol: (§1) Study B involved 9 healthy dogs (8 females and 1 male), including the 4 females from Study A after wash-out and upon confirmation of regular laboratory evaluations. […] Tolerability evaluations were performed via clinical examinations and blood sampling for laboratory evaluation after each treatment. For toxicity assessments, 4, 6, and 8 h after the final administration, the animals were euthanized for tissue collection and histopathological evaluation.
In Study B, samples of interstitial fluid were collected from tissue cages implanted subcutaneously in the dogs. These cages were prepared based on a protocol previously described by Stegemann et al.. They were made from non-toxic, siliconized, flexible, non-irritant PVC tubes with dimensions of 3.5 cm long, an internal diameter of 3 mm, and an external diameter of 5 mm. Three autoclaved cages were surgically implanted between the scapula of each animal under sedation (xylazine 2%, Syntec, Tambore, SP, Brazil) and local anesthesia (lidocaine 2% and epinephrine 0.002%, Syntec). Before and after surgical procedures, antibiotics (enrofloxacin–5 mg/Kg, Syntec) and an anti-inflammatory (ketoprofen 1%–1 mL/Kg, CEVA, Paulínia, SP, Brazil) drug were administered. To allow animals to heal, as well as the formation of the granulation tissue around the cages, a recovery time of 10 days after surgery was considered. The subcutaneous interstitial fluid was collected by percutaneous puncture using a 21 G needle and 20 mL syringe.
For the mobile phase, acetonitrile (ACN, J.T.Baker®, Philadelphia, PA, USA) and water with 1% acetic acid (J.T.Baker®)were used. Briefly, aliquots of 200 µL of plasma or 100 µL of subcutaneous interstitial liquid were placed in a 1.5 mL microcentrifuge tube. Subsequently, 600 µL and 300 µL of ACN were added to all plasma and subcutaneous interstitial liquid samples, respectively. The mixture was vortexed for 30 s, followed by centrifugation at 3400× g for 10 min. Next, 500 µL of the plasma supernatant and 250 µL of the subcutaneous interstitial fluid were pipetted into a new vial. The method was validated in accordance with the International Council for Harmonization (ICH) technical requirements for the evaluation of medicinal products. […] No matrix interferences were observed. Two calibrated plasma curves of 17-AAG were validated with different injection volumes. […] Data acquisition and processing were performed using LabSolutions software (Version 5.3).
(§2) Cmax, half-life (t ½), distribution volume, and clearance were also determined. Data were analyzed in Excel and WinNonlin using a mono-compartmental model.

healthy dogs [3] = assay: Study B: safety and toxicity, side and adverse effects, plasma biochemistry; assay type: in vivo
Protocol: as §1
(§3) Hemograms were performed following blood collection.

[4] = Study B multiple administrations of 150 mg/m^2: 17-AAG pharmacokinetics in plasma (HPLC); assay type: in vivo, dogs; conditions: dog, iv; for AUC(0-t) / Cmax / half-life: both sexes, plasma, dogs, mean ± SD; for AUC(0-t): 150 mg/m2, AUC 0–8 h, Study B; for Cmax / half-life: 150 mg/m2, Study B; for half-life: read-out: t ½ (converted); for Clearance / DV (distribution volume): in vivo
Protocol: as §1
In Studies A and B, an intravenous catheter was placed in the cephalic vein of each animal’s right and left anterior limbs. […] Under both protocols, blood samples were centrifuged at 1500× g at 4 °C for 10 min.
For the mobile phase, acetonitrile (ACN, J.T.Baker®, Philadelphia, PA, USA) and water with 1% acetic acid (J.T.Baker®)were used. Briefly, aliquots of 200 µL of plasma or 100 µL of subcutaneous interstitial liquid were placed in a 1.5 mL microcentrifuge tube. Subsequently, 600 µL and 300 µL of ACN were added to all plasma and subcutaneous interstitial liquid samples, respectively. The mixture was vortexed for 30 s, followed by centrifugation at 3400× g for 10 min. Next, 500 µL of the plasma supernatant and 250 µL of the subcutaneous interstitial fluid were pipetted into a new vial. […] Data acquisition and processing were performed using LabSolutions software (Version 5.3).
as §2

healthy dogs [5] = assay: Study B: histopathology of tissues after treatment; assay type: in vivo; conditions: nine dogs, three IV doses of 150 mg/m^2
Protocol: as §1, §3

[6] = Study B, third day, out of nine dogs
[7] = 1st of three IV administrations of 150 mg/m^2 at 48 h intervals
[8] = 2nd of three IV administrations of 150 mg/m^2 at 48 h intervals
[9] = 3rd of three IV administrations of 150 mg/m^2 at 48 h intervals

Compound: C=CCNC1=C2C[C@@H](C)C[C@H](OC)[C@H](O)[C@@H](C)/C=C(\C)[C@H](OC(N)=O)[C@@H](OC)/C=C\C=C(/C)C(=O)NC(=CC1=O)C2=O [17-AAG, 17-(allylamino)-17-demethoxygeldanamycin]
- half-life [1]: 180 to 360 min
- Concentration in subcutaneous interstitial fluid (tissue cages) ([2]; Study B, 150 mg/m^2 IV, at all times evaluated / at 48 h intervals): ~100 ng/mL
- AUC(0-t) ([2]; 150 mg/m2, AUC 0–8 h, Study B, 1st administration of 150 mg/m^2 IV): 2660 ± 437 ng·h/mL
- AUC(0-t) ([2]; 150 mg/m2, AUC 0–8 h, Study B, 2nd administration of 150 mg/m^2 IV): 2910 ± 686 ng·h/mL
- AUC(0-t) ([2]; 150 mg/m2, AUC 0–8 h, Study B, 3rd administration of 150 mg/m^2 IV): 2730 ± 1440 ng·h/mL
- Cmax ([2]; 150 mg/m2, Study B, 1st administration of 150 mg/m^2 IV): 704 ± 332 ng/mL
- Cmax ([2]; 150 mg/m2, Study B, 2nd administration of 150 mg/m^2 IV): 736 ± 294 ng/mL
- Cmax ([2]; 150 mg/m2, Study B, 3rd administration of 150 mg/m^2 IV): 726 ± 401 ng/mL
- AUC(0-t) ([2]; 150 mg/m2, Study B, 1st administration of 150 mg/m^2 IV, read-out: AUC 0–4 h): 1820 ± 430 ng·h/mL
- AUC(0-t) ([2]; 150 mg/m2, Study B, 1st administration of 150 mg/m^2 IV, read-out: AUC 0–6 h): 2300 ± 409 ng·h/mL
- AUC(0-t) ([2]; 150 mg/m2, Study B, 1st administration of 150 mg/m^2 IV, read-out: AUC 0–24 h): 4760 ± 333 ng·h/mL
- AUC(0-t) ([2]; 150 mg/m2, Study B, 1st administration of 150 mg/m^2 IV, read-out: AUC 0–47.5 h): 7380 ± 1360 ng·h/mL
- half-life ([2]; 150 mg/m2, Study B, 1st of three IV administrations of 150 mg/m^2 at 48 h intervals): 38 ± 16 h
- AUC(0-t) ([2]; 150 mg/m2, Study B, 2nd administration of 150 mg/m^2 IV, read-out: AUC 0–4 h): 1940 ± 618 ng·h/mL
- AUC(0-t) ([2]; 150 mg/m2, Study B, 2nd administration of 150 mg/m^2 IV, read-out: AUC 0–6 h): 2550 ± 638 ng·h/mL
- AUC(0-t) ([2]; 150 mg/m2, Study B, 2nd administration of 150 mg/m^2 IV, read-out: AUC 0–24 h): 4070 ± 700 ng·h/mL
- AUC(0-t) ([2]; 150 mg/m2, Study B, 2nd administration of 150 mg/m^2 IV, read-out: AUC 0–47.5 h): 7050 ± 2190 ng·h/mL
- half-life ([2]; 150 mg/m2, Study B, 2nd of three IV administrations of 150 mg/m^2 at 48 h intervals): 28 ± 9 h
- AUC(0-t) ([2]; 150 mg/m2, Study B, 3rd administration of 150 mg/m^2 IV, read-out: AUC 0–4 h): 895 ± 408 ng·h/mL
- AUC(0-t) ([2]; 150 mg/m2, Study B, 3rd administration of 150 mg/m^2 IV, read-out: AUC 0–6 h): 2040 ± 1100 ng·h/mL
- AUC(0-t) ([2]; 150 mg/m2, Study B, 3rd administration of 150 mg/m^2 IV, read-out: AUC 0–24 h): 3500 ± 2420 ng·h/mL
- Animals with elevated transaminase levels persisting (healthy dogs [3]; Study B, by the fourth day): only one animal
- Animals with bloody diarrhea (healthy dogs [3]; Study B, fourth day): one animal
- Animals with pale feces (healthy dogs [3]; Study B, fourth day): seven out of nine
- Dogs with elevated levels of ALT and AST (healthy dogs [3]; Study B, multiple doses of 150 mg/m^2, three out of nine): 33%
- Animals with pasty feces (healthy dogs [3]; Study B, second day after administering the second dose): two out of nine
- Animals with bloody diarrhea (healthy dogs [3]; [6]): one
- Animals with diarrhea with liquid feces (healthy dogs [3]; [6]): three
- Animals with pasty feces (healthy dogs [3]; [6]): two
- Dogs presenting elevated levels of ALT, AST and GGT (healthy dogs [3]; Study B, three IV doses of 150 mg/m^2): 3/9
- Animals with skin reaction with temporarily erupted hairs (healthy dogs [3]; dog, in vivo): only one animal
- Animals presenting adverse reactions: ALT (healthy dogs [3]; dog, in vivo, iv): 3 (33%) n (%)
- Animals presenting adverse reactions: AST (healthy dogs [3]; dog, in vivo, iv): 3 (33%) n (%)
- Animals presenting adverse reactions: bloody diarrhea (healthy dogs [3]; dog, in vivo, iv): 1 (11%) n (%)
- Animals presenting adverse reactions: diarrhea (liquid feces) (healthy dogs [3]; dog, in vivo, iv): 3 (33%) n (%)
- Animals presenting adverse reactions: erythema (healthy dogs [3]; dog, in vivo, iv): 0 n (%)
- Animals presenting adverse reactions: hyperthermia (healthy dogs [3]; dog, in vivo, iv): 0 n (%)
- Animals presenting adverse reactions: nausea (healthy dogs [3]; dog, in vivo, iv): 0 n (%)
- Animals presenting adverse reactions: pasty feces (healthy dogs [3]; dog, in vivo, iv): 9 (100%) n (%)
- Animals presenting adverse reactions: pruritus (healthy dogs [3]; dog, in vivo, iv): 0 n (%)
- Animals presenting adverse reactions: vomit (healthy dogs [3]; dog, in vivo, iv): 0 n (%)
- AUC(0-t) [4, 7]: 6350 ± 432 ng·h/mL
- AUC(0-t) [4, 8]: 7050 ± 382 ng·h/mL
- AUC(0-t) [4, 9]: 6850 ± 69 ng·h/mL
- Cmax [4, 7]: 6310 ± 2200 ng/mL
- Cmax [4, 8]: 5910 ± 1130 ng/mL
- Cmax [4, 9]: 5250 ± 2780 ng/mL
- half-life [4, 7]: 41.4 ± 13.2 min
- half-life [4, 8]: 41.4 ± 14.4 min
- half-life [4, 9]: 48.6 ± 21 min
- Clearance ([4]; 1st administration): 0.023 ± 0.002 L/m^2/h
- DV (distribution volume) ([4]; 1st administration): 0.029 ± 0.003 L/m^2
- Clearance ([4]; 2nd administration): 0.021 ± 0.001 L/m^2/h
- DV (distribution volume) ([4]; 2nd administration): 0.030 ± 0.002 L/m^2
- Clearance ([4]; 3rd administration): 0.022 ± 0.002 L/m^2/h
- DV (distribution volume) ([4]; 3rd administration): 0.033 ± 0.003 L/m^2
- Histopathological alterations in the lung and heart (healthy dogs [5]): no histopathological alterations
